Measurements: patent US12344618B2, “Heterotricyclic derivative compound and use of same” (HANMI PHARMACEUTICAL CO., LTD., priority 2019, dated 2025)

Experiments:
EZH1 = biological target: T1, EZH1 (Homo sapiens, UniProt Q92800); experiment: Inhibitory activity against EZH1 methyltransferase (radiometric scintillation proximity assay); format: biochemical; details: 2.3 nmol/L enzyme, 90 minutes, room temperature;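 further: Read-out is methylation of a substrate peptide, captured on streptavidin-coated SPA beads and counted by scintillation, in Tris-HCl buffer at pH 8.0 with 1% DMSO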
T1 construct: purchased Reaction Biology Corp. (contract assay)
Procedure: (§1) The inhibitory activities of the synthetic compounds against EZH1 or EZH2 methyltransferase were measured. The experiment was conducted by Reaction Biology Corp., and the activity of EZH1 or EZH2 was measured using a radiometric scintillation proximity assay. […] The reaction buffer consisted of 50 mmol/L Tris-HCl (pH 8.0), 50 mmol/L NaCl, 1 mmol/L EDTA, 1 mmoL/L DTT, 1 mmol/L PMSF, and 1% DMSO. Trichloroacetic acid was added to terminate the reaction, and PVT streptavidin-coated SPA beads were added to each reaction solution, followed by further reaction at room temperature for 1 hour again. The methylation value of the substrate peptide was measured using the TopCount NXT plate reader.

EZH2 = EZH2 (Homo sapiens, UniProt Q15910); experiment: Inhibitory activity against EZH2 methyltransferase (radiometric scintillation proximity assay); details: Enzyme inhibitory activity (IC50, nM) EZH2, 2.3 nmol/L enzyme, 90 minutes, room temperature;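 further: Read-out is substrate peptide methylation, captured on streptavidin-coated SPA beads and counted by scintillation, with the reaction run in Tris-HCl buffer at pH 8.0 containing 1% DMSO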
Procedure: as §1

[1] = tested on: KARPAS-422 (EZH2 Y641N mutation); experiment: Cell growth inhibition test, KARPAS-422; format: cell-based; details: Homo sapiens, KARPAS-422, 168 h, KARPAS-422, culture time 7 days; read-out: Cell growth inhibitory activity (GI50, nM) KARPAS-422 (EZH2 Y641N mutation)
Procedure: Each type of the cultured cells was seeded in 6-well plates or 48-96 well plates, and subculture or medium replacement was performed every 3 to 4 days. Next, the cells were subcultured for a total of 7 to 14 days, and then seeded in 96-well plates. 3 to 5 days before the measurement of the effect, the cells were seeded in 96-well plates, and then the absorbance (Tz) on the day of seeding was measured. The absorbance after the reaction was measured by the plate reader device Synergy NeoAlpha (Biotek) using Cell-Titer-Glo Cell Viability Assay (Promega, G7573) according to the attached manual. Based on the absorbance (Tz) measured on the seeding day and the absorbance of each of the DMSO-treated group (C) and the sample-added group (Ti) measured on the day of effect determination, the percentage of cell proliferation inhibition was calculated according to the following Equation 1. [(Ti−Tz)/(C−Tz)]×100 for concentrations for which Ti≥Tz […] for concentrations for which Ti<Tz. [Equation 1]

Sequence of EZH2 (Q15910 whole entry): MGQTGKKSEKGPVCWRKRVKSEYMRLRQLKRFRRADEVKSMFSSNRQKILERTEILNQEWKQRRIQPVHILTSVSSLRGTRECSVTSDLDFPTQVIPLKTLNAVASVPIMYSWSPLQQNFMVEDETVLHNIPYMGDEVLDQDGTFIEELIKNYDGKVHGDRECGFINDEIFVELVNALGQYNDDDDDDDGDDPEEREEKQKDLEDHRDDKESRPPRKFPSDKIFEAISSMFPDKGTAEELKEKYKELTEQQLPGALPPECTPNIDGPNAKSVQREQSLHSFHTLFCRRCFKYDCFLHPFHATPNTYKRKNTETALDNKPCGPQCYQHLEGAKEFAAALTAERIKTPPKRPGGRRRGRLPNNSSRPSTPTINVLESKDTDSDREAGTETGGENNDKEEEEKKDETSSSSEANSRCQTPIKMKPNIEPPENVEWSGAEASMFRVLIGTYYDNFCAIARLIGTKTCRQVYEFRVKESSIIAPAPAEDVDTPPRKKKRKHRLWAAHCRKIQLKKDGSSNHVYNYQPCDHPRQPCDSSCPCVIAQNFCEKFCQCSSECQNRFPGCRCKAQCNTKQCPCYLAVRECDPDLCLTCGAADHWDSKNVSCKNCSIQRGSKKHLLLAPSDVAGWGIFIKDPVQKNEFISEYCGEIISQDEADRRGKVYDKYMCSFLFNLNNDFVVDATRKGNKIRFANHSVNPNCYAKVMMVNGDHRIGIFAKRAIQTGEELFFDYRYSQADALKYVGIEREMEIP
Sequence of EZH2 (O75530 whole entry partner): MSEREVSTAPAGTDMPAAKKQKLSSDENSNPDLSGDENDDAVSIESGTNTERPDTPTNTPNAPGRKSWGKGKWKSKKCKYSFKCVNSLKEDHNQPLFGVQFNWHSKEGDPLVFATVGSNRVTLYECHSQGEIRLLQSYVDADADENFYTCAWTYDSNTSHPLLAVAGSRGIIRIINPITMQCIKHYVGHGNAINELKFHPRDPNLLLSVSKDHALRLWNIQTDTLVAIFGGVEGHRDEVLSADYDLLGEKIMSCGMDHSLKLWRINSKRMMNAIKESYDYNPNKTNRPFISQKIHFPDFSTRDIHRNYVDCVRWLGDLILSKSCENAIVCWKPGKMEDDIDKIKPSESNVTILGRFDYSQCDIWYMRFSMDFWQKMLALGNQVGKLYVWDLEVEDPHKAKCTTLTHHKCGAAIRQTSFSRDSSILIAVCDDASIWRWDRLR
Sequence of EZH2 (Q15022 whole entry partner): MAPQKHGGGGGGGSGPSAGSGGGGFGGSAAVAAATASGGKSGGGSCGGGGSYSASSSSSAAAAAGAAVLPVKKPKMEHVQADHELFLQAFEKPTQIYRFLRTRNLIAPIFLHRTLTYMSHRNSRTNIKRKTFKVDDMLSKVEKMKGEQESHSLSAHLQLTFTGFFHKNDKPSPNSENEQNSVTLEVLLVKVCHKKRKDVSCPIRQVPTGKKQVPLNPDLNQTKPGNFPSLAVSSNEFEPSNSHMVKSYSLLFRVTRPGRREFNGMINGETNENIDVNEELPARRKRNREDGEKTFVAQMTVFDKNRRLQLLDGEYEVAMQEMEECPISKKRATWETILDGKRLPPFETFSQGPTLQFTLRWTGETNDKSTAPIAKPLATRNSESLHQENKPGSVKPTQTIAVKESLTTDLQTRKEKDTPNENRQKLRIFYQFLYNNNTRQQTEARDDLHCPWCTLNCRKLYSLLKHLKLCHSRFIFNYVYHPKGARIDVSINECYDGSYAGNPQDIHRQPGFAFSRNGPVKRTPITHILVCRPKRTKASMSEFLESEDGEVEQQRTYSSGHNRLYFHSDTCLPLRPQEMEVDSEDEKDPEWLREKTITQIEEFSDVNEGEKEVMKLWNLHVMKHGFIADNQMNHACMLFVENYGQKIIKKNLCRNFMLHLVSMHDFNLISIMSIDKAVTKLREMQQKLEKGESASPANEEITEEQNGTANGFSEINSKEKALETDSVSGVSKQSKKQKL
Sequence of EZH2 (Q09028 whole entry partner): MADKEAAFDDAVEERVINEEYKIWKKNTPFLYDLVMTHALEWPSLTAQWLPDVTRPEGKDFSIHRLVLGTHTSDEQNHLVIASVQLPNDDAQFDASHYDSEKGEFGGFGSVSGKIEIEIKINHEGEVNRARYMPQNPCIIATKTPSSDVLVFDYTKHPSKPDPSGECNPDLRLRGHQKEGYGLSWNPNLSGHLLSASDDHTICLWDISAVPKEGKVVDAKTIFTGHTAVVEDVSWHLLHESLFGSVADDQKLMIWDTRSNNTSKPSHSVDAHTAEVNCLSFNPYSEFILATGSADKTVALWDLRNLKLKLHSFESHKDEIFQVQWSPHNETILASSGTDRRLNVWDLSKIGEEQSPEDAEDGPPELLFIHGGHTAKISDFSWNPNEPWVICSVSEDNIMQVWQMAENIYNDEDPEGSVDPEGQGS
Sequence of EZH2 (Q6ZN18 whole entry partner): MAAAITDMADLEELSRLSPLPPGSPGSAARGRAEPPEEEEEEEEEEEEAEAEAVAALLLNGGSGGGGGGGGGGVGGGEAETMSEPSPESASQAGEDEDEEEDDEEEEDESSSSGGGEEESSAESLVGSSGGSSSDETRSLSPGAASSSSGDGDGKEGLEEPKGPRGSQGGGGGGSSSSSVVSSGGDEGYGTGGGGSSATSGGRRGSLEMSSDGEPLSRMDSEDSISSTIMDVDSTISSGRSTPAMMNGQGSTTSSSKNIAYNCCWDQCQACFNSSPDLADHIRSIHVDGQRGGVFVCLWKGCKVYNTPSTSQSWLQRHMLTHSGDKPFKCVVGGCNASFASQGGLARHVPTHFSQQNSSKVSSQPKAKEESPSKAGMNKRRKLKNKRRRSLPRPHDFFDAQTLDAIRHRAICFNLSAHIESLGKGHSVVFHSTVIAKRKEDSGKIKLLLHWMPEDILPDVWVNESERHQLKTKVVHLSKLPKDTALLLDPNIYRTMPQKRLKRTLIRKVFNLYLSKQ
T1 sequence (Q92800 whole entry): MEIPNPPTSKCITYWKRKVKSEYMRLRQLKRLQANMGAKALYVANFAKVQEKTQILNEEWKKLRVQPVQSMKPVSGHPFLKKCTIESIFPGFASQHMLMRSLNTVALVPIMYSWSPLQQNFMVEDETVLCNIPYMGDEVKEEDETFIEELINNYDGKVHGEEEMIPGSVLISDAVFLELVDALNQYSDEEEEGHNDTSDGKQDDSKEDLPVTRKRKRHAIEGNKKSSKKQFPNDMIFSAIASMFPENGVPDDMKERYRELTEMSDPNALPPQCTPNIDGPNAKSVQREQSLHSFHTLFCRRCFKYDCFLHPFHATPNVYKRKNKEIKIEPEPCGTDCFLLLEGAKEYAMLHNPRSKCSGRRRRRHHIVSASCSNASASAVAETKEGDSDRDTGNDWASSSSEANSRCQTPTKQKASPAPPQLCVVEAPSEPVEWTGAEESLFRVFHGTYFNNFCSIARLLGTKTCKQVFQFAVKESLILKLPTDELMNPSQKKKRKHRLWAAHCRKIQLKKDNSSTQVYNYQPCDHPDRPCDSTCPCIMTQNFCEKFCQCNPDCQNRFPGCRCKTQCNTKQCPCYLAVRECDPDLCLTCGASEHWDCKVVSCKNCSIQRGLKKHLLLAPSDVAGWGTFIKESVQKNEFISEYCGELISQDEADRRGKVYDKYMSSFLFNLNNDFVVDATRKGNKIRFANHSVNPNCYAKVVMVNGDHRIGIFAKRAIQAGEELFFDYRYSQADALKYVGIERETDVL
T1 sequence (O75530 whole entry partner): as the sequence (O75530 whole entry partner) above
T1 sequence (Q15022 whole entry partner): as the sequence (Q15022 whole entry partner) above
T1 sequence (Q09028 whole entry partner): as the sequence (Q09028 whole entry partner) above
T1 sequence (Q6ZN18 whole entry partner): as the sequence (Q6ZN18 whole entry partner) above

| IC50 (EZH1) [nM] | IC50 (EZH2) [nM] | GI50 [1] [nM] | SMILES |
| --- | --- | --- | --- |
| 97.6 | 14.3 |  | Cc1cc(C)c(CN2CCc3cc4c(c(C)c3C2=O)OC(C)([C@H]2CC[C@H](N(C)C)CC2)O4)c(=O)[nH]1 (stereo partly drawn) [Compound 1, 6-((4,6-dimethyl-2-oxo-1,2-dihydropyridin-3-yl)methyl)-2(trans-4-(dimethylamino)cyclohexyl)-2,4-dimethyl-7,8-dihydro-[1,3]dioxolo[4,5-g]isoquinolin-5(6H)-one] |
| 371 | 7.9 |  | Cc1cc(C)c(CN2CCc3cc4c(cc3C2=O)OC(C)([C@H]2CC[C@H](N(C)C)CC2)O4)c(=O)[nH]1 (stereo partly drawn) [Compound 2, 6-((4,6-dimethyl-2-oxo-1,2-dihydropyridin-3-yl)methyl)-2(trans-4-(dimethylamino)cyclohexyl)-2-methyl-7,8-dihydro-[1,3]dioxolo[4,5-g]isoquinolin-5(6H)-one] |
| 54 | 3.8 | 4.8 | Cc1cc(C)c(CN2CCc3c(Cl)c4c(c(Cl)c3C2=O)OC(C)([C@H]2CC[C@H](N(C)C)CC2)O4)c(=O)[nH]1 (stereo partly drawn) [Compound 7, 4,9-dichloro-6-((4,6-dimethyl-2-oxo-1,2-dihydropyridin-3-yl)methyl)-2-(trans-4-(dimethylamino)cyclohexyl)-2-methyl-7,8-dihydro-[1,3]dioxolo[4,5-g]isoquinolin-5(6H)-one] |
|  | 3.2 | 13 | Cc1cc(C)c(CN2CCc3c(Cl)c4c(c(C)c3C2=O)OC(C)([C@H]2CC[C@H](N)CC2)O4)c(=O)[nH]1 (stereo partly drawn) [Compound 8, 2-(trans-4-aminocyclohexyl)-9-chloro-6-((4,6-dimethyl-2-oxo-1,2-dihydropyridin-3-yl)methyl)-2,4-dimethyl-7,8-dihydro-[1,3]dioxolo[4,5-g]isoquinolin-5(6H)-one] |
| 27 | 3.2 | 50 | CCCc1cc(C)[nH]c(=O)c1CN1CCc2c(Cl)c3c(c(C)c2C1=O)OC(C)([C@H]1CC[C@H](N(C)C)CC1)O3 (stereo partly drawn) [Compound 14, 9-chloro-2-(trans-4-(dimethylamino)cyclohexyl)-2,4-dimethyl-6-((6-methyl-2-oxo-4-propyl-1,2-dihydropyridin-3-yl)methyl)-7,8-dihydro-[1,3]dioxolo[4,5-g]isoquinolin-5(6H)-one] |
| 65 | 3.6 | 18 | CCN[C@H]1CC[C@H](C2(C)Oc3c(C)c4c(c(Cl)c3O2)CCN(Cc2c(C)cc(C)[nH]c2=O)C4=O)CC1 (stereo partly drawn) [Compound 15, 9-chloro-6-((4,6-dimethyl-2-oxo-1,2-dihydropyridin-3-yl)methyl)-2-(trans-4-(ethylamino)cyclohexyl)-2,4-dimethyl-7,8-dihydro-[1,3]dioxolo[4,5-g]isoquinolin-5(6H)-one] |
| 89 | 11 | 68 | CCN(CC)[C@H]1CC[C@H](C2(C)Oc3c(C)c4c(c(Cl)c3O2)CCN(Cc2c(C)cc(C)[nH]c2=O)C4=O)CC1 (stereo partly drawn) [Compound 16, 9-chloro-2-(trans-4-(diethylamino)cyclohexyl)-6-((4,6-dimethyl-2-oxo-1,2-dihydropyridin-3-yl)methyl)-2,4-dimethyl-7,8-dihydro-[1,3]dioxolo[4,5-g]isoquinolin-5(6H)-one] |
| 74 | 5.6 | 52 | Cc1cc(C)c(CN2CCc3c(Cl)c4c(c(C)c3C2=O)OC(C)([C@H]2CC[C@H](N3CCCCC3)CC2)O4)c(=O)[nH]1 (stereo partly drawn) [Compound 17, 9-chloro-6-((4,6-dimethyl-2-oxo-1,2-dihydropyridin-3-yl)methyl)-2,4-dimethyl-2-(trans-4-(piperidin-1-yl)cyclohexyl)-7,8-dihydro-[1,3]dioxolo[4,5-g]isoquinolin-5(6H)-one] |
| 47 | 4.3 | 16 | Cc1cc(C)c(CN2CCc3c(Cl)c4c(c(C)c3C2=O)OC(C)([C@H]2CC[C@H](N3CCCC3)CC2)O4)c(=O)[nH]1 (stereo partly drawn) [Compound 18, 9-chloro-6-((4,6-dimethyl-2-oxo-1,2-dihydropyridin-3-yl)methyl)-2,4-dimethyl-2-(trans-4-(pyrrolidin-1-yl)cyclohexyl)-7,8-dihydro-[1,3]dioxolo[4,5-g]isoquinolin-5(6H)-one] |
|  | 4.4 | 440 | CC[C@H](O)C(=O)N[C@H]1CC[C@H](C2(C)Oc3c(C)c4c(c(Cl)c3O2)CCN(Cc2c(C)cc(C)[nH]c2=O)C4=O)CC1 (some centres unmarked) [Compound 19] |
| 48 | 3.7 | 18 | Cc1cc(C)c(CN2CCc3c(Cl)c4c(c(C)c3C2=O)OC(C)(C[C@H]2CC[C@H](N)CC2)O4)c(=O)[nH]1 (some centres unmarked) [Compound 20] |
|  | 4.4 | > 1000 | Cc1cc(C)c(CN2CCc3c(Cl)c4c(c(C)c3C2=O)OC(C)(C2CCCC2)O4)c(=O)[nH]1 (centres unmarked) [Compound 23, 9-chloro-2-cyclopentyl-6-((4,6-dimethyl-2-oxo-1,2-dihydropyridin-3-yl)methyl)-2,4-dimethyl-7,8-dihydro-[1,3]dioxolo[4,5-g]isoquinolin-5(6H)-one] |
| 166 | 11 |  | Cc1cc(C)c(CN2CCc3c(Cl)c4c(c(C)c3C2=O)OC(C)(c2ccc(N(C)C)cc2)O4)c(=O)[nH]1 (centres unmarked) [Compound 25, 9-chloro-6-((4,6-dimethyl-2-oxo-1,2-dihydropyridin-3-yl)methyl)-2-(4-(dimethylamino)phenyl)-2,4-dimethyl-7,8-dihydro-[1,3]dioxolo[4,5-g]isoquinolin-5(6H)-one] |
| 310 | 3.9 |  | Cc1cc(C)c(CN2CCc3c(Cl)c4c(c(C)c3C2=O)OC(C)(c2c(C)noc2C)O4)c(=O)[nH]1 (centres unmarked) [Compound 27] |
| 54 | 4.4 |  | Cc1cc(C)c(CN2CCc3c(C)c4c(c(C)c3C2=O)OC(C)([C@H]2CC[C@H](N)CC2)O4)c(=O)[nH]1 (stereo partly drawn) [Compound 38, 2-(trans-4-aminocyclohexyl)-6-((4,6-dimethyl-2-oxo-1,2-dihydropyridin-3-yl)methyl)-2,4,9-trimethyl-7,8-dihydro-[1,3]dioxolo[4,5-g]isoquinolin-5(6H)-one] |
| 34 | 0.4 |  | Cc1cc(C)c(CN2CCc3c(C)c4c(c(C)c3C2=O)OC(C)(C2CCCCC2)O4)c(=O)[nH]1 (centres unmarked) [Compound 44, 2-cyclohexyl-6-((4,6-dimethyl-2-oxo-1,2-dihydropyridin-3-yl)methyl)-2,4,9-trimethyl-7,8-dihydro-[1,3]dioxolo[4,5-g]isoquinolin-5(6H)-one] |
| 18 | 6.2 |  | CCN[C@H]1CC[C@H](C2(C)Oc3c(C)c4c(c(C)c3O2)C(=O)N(Cc2c(OC)cc(C)[nH]c2=O)CC4)CC1 (stereo partly drawn) [Compound 45, 2-(trans-4-(ethylamino)cyclohexyl)-6-((4-methoxy-6-methyl-2-oxo-1,2-dihydropyridin-3-yl)methyl)-2,4,9-trimethyl-7,8-dihydro-[1,3]dioxolo[4,5-g]isoquinolin-5(6H)-one] |
| 16 | 9.7 |  | CCN(CC)[C@H]1CC[C@H](C2(C)Oc3c(C)c4c(c(C)c3O2)C(=O)N(Cc2c(OC)cc(C)[nH]c2=O)CC4)CC1 (stereo partly drawn) [Compound 46, 2-(trans-4-(diethylamino)cyclohexyl)-6-((4-methoxy-6-methyl-2-oxo-1,2-dihydropyridin-3-yl)methyl)-2,4,9-trimethyl-7,8-dihydro-[1,3]dioxolo[4,5-g]isoquinolin-5(6H)-one] |
| 20 | 7 |  | CCN(C)[C@H]1CC[C@H](C2(C)Oc3c(C)c4c(c(C)c3O2)C(=O)N(Cc2c(OC)cc(C)[nH]c2=O)CC4)CC1 (some centres unmarked) [Compound 47] |
| 26 | 5.6 |  | Cc1cc(C)c(CN2CCc3c(c(C)c4c(c3-c3ccc(CN5CCOCC5)cc3)OC(C)([C@H]3CC[C@H](N(C)C)CC3)O4)C2=O)c(=O)[nH]1 (stereo partly drawn) [Compound 55, 6-((4,6-dimethyl-2-oxo-1,2-dihydropyridin-3-yl)methyl)-2-(trans-4-(dimethylamino)cyclohexyl)-2,4-dimethyl-9-(4-(morpholinomethyl)phenyl)-7,8-dihydro-[1,3]dioxolo[4,5-g]isoquinolin-5(6H)-one] |
|  |  | 6.4 | Cc1cc(C)c(CN2CCc3c(c(C)c4c(c3-c3cccnc3)OC(C)([C@H]3CC[C@H](N(C)C)CC3)O4)C2=O)c(=O)[nH]1 (stereo partly drawn) [Compound 66, 6-((4,6-dimethyl-2-oxo-1,2-dihydropyridin-3-yl)methyl)-2-(trans-4-(dimethylamino)cyclohexyl)-2,4-dimethyl-9-(pyridin-3-yl)-7,8-dihydro-[1,3]dioxolo[4,5-g]isoquinolin-5(6H)-one] |
|  |  | 4.3 | Cc1cc(C)c(CN2CCc3c(c(C)c4c(c3-c3cncs3)OC(C)([C@H]3CC[C@H](N(C)C)CC3)O4)C2=O)c(=O)[nH]1 (stereo partly drawn) [Compound 67, 6-((4,6-dimethyl-2-oxo-1,2-dihydropyridin-3-yl)methyl)-2-(trans-4-(dimethylamino)cyclohexyl)-2,4-dimethyl-9-(thiazol-5-yl)-7,8-dihydro-[1,3]dioxolo[4,5-g]isoquinolin-5(6H)-one] |
|  |  | 5.1 | Cc1cc(C)c(CN2CCc3c(c(C)c4c(c3-c3cnn(C)c3)OC(C)([C@H]3CC[C@H](N(C)C)CC3)O4)C2=O)c(=O)[nH]1 (stereo partly drawn) [Compound 68, 6-((4,6-dimethyl-2-oxo-1,2-dihydropyridin-3-yl)methyl)-2-(trans-4-(dimethylamino)cyclohexyl)-2,4-dimethyl-9-(1-methyl-1H-pyrazol-4-yl)-7,8-dihydro-[1,3]dioxolo[4,5-g]isoquinolin-5 (6H)-one] |
